Patent publication US10765747B2 (SWEDISH ORPHAN BIOVITRUM AB (PUBL), priority 2004, dated 2020)
Where two headings read alike, the source gives them in different places. Values belong to the compound of their own block, whether it stands above or below them.

Tests used:
IL-1ra [1] = molecular target: T1, IL-1ra (Homo sapiens, UniProt P18510); experiment: Derivatization of IL-1ra with methyl acetyl phosphate (MAP) in various buffers, reverse-phase HPLC; design: additional N-terminal methionine (not a tag proper); host or cells: E. coli (stated for anakinra in the background); conditions: for rate of derivatization of IL-1ra with MAP compared with phosphate buffer: pH 6.3, 6.5, 6.7; for rate of derivatization of IL-1ra with MAP in 20 mM compared with 10 mM buffer: pH 6.5
Experimental: IL-1ra was derivatized with MAP in the presence of citrate or phosphate as follows. […] The reaction was incubated at 37° C. and 25 μl aliquots were taken using an HPLC autosampler at 0, 45, 90, 135, 180, 225, and 270 minutes. Each aliquot was analyzed by reverse-phase HPLC using an Agilent 110 HPLC equipped with a Jupiter 5u C4 300A reverse-phase HPLC column (4.6×250 mm, Phenomenex, Torrance, Calif.), an on-line UV detector and a temperature-controlled 100-well sample tray set at 37° C. The flow rate was set at 1 ml/min and the column was maintained at a temperature of 50° C. The column was pre-equilibrated for 15 min (flow rate 1 ml/min) with 65% buffer A (0.1% trifluoroacetic acid (TFA) in water) and 35% buffer B (90% acetonitrile, 0.1% TFA in water). After loading, the analytes were eluted using a gradient ramping from 35% to 50% buffer B (90% acetonitrile, 0.1% TFA in water) over 25 minutes.
(§1) The reaction was incubated at 37° C. and 25 μl aliquots were taken using an HPLC autosampler at 0, 45, 90, 135, 180, 225, and 270 minutes. Each aliquot was analyzed by reverse-phase HPLC as described above for derivatization in the presence of citrate.
as §1, with “citrate. […] Four weakly resolved peaks were identified in this experiment and are indicated on FIG. 15.” for “citrate.”
In particular, each chromatogram from FIG. 16A was deconvoluted using PeakFit™ (Systat Software Inc.). The area under the each of the deconvoluted peaks (peaks 1-4) at each time point (0, 45, 90, 135, 180, 225, and 270 minutes) was then integrated. Deconvoluted peaks 1-4 are labeled on FIG. 16B and the integrated area under each one is shown below. […] The integrated area of deconvoluted peak 4 at time points 0, 45, 90, 135, 180 minutes was then plotted against the incubation time of the reaction that produced that peak. The resulting line has a slope of 68.931 hour^−1.
The rate of derivatization of IL-1ra with MAP was then calculated for various experiments in the presence of various buffers and at various pHs, according to the methods discussed above.

IL-1ra [2] = molecular target: T1, IL-1ra; conditions: for reduction in the rate of aggregation of IL-1ra: 10 mM accessory molecule
Experimental: The rate of aggregation was determined as the slope of the linear region of the saturation curve calculated using the SoftMax Pro program (Molecular Devices).

[3] = pH 6.5 and 39° C., estimated from literature-reported pKas
[4] = molecular target: T2, anion binding site on IL-1ra (Homo sapiens, UniProt P18510); conditions: for Kd: read-out: K^dX, Kd for competing anion binding to the anion binding site of IL-1ra, competition with 10 mM citrate, 1 mM IL-1ra, pH 6.5, 70 mM NaCl
Excerpt: (§2) After spinning, about half of the solution passed through the filter as filtrate, while the remaining solution remained above the filter as retentate.
(§3) K^dL is the Kd for ligand binding to protein and is equal to the concentration of P (free protein) times the concentration of L (free ligand), divided by the concentration of PL (protein bound to ligand). K^dX is the Kd for competitive anion binding to protein and is equal to the concentration of P (free protein) times the concentration of X (free competing anion), divided by concentration of PX (protein bound to competing anion).
(§4) By replacing the (PX) term with (Xfree)(Pfree)/K^dX, which is derived from the equilibrium equation shown above, the expression for K^dLapp can be reduced to: K^dLapp=K^dL[1+(Xfree/K^dX)] Thus, if K^dLapp is plotted versus Xfree, the y-intercept will be equal to K^dL and the slope will be equal to K^dL/K^dX. Rearranging, K^dX will be equal to the y-intercept divided by the slope.
(§5) The concentration of free protein is calculated to be the total concentration of protein in the sample minus the concentration of bound protein (which is equal to the concentration of bound ligand). […] In other words, Xfree=Xtotal−ΔXbound as Xtotal is increased.

[5] = pH 6.5 and 39° C.; cited from earlier work
[6] = molecular target: T2, anion binding site on IL-1ra; experiment: biochemical; conditions: K^dL, Kd of citrate (y-intercept of K^dLapp plot)
Excerpt: as §2, §3, §4, §5

IL-1ra [7] = molecular target: T1, IL-1ra; experiment: Citrate binding to IL-1ra (spin column filtration, HPLC, Scatchard plot)
[8] = pH 6.5, 29° C., IL-1ra 140 mg/ml

T2 sequence (P18510 with tags, fused parts or gaps): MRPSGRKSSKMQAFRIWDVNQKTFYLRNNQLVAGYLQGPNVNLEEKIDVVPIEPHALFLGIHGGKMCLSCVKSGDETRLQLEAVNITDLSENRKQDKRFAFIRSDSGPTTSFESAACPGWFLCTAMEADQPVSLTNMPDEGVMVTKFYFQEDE
T1 sequence (P18510 with tags, fused parts or gaps): as above

rate of derivatization of IL-1ra with MAP (slope of integrated area of deconvoluted peak 4 versus incubation time) (IL-1ra [1]; 10 mM citrate, pH 6.5, 37° C., time points 0-180 minutes): 68.931 h⁻¹
Compound: IL-1ra: Purified human recombinant interleukin-1 receptor antagonist having the amino acid sequence of SEQ ID NO: 5 (anakinra)

reduction in the rate of aggregation of IL-1ra (IL-1ra [2]; [8]): ~20%
predicted negative charges [3]: predominantly one negative charge
level of derivatization with MAP at all positions except the N-terminal amine, compared with citrate or pyrophosphate (IL-1ra [1]; 10 mM buffer, 270 minutes, 37° C.): greater
extent of derivatization of IL-1ra with MAP compared with citrate (IL-1ra [1]; 10 mM buffer, pH 6.3, 6.5 or 6.7, 5.5 hours): greater extent
Kd [4]: 12.6 mM
Compound: phosphate

Compound: O=P(O)(O)OP(=O)(O)O [pyrophosphate]
estimated pKa, first ionizable hydrogen [5]: 0.83
estimated pKa, fourth ionizable hydrogen [5]: 9.46
estimated pKa, second ionizable hydrogen [5]: 2.26
estimated pKa, third ionizable hydrogen [5]: 6.72
reduction in the rate of aggregation of IL-1ra (IL-1ra [2]; [8]): ~90%
rate of aggregation of IL-1ra with increasing anion concentration, compared with phosphate buffer (IL-1ra [2]; 1 to 125 mM, 29° C.): decreased more rapidly
concentration at which the reduction in the rate of aggregation leveled off (IL-1ra [2]; [8]): 20 mM
predicted negative charges [3]: between two and three negative charges
rate of derivatization of IL-1ra with MAP compared with phosphate buffer (IL-1ra [1]): slower
rate of derivatization of IL-1ra with MAP in 20 mM compared with 10 mM buffer (IL-1ra [1]): slower
competing with citrate for the citrate binding site on IL-1ra, compared with phosphate ([4]; 0-20 mM competing anion, 10 mM citrate): more effective
Kd [4]: 2.99 mM

reduction in the rate of aggregation of IL-1ra (IL-1ra [2]; [8]): ~90%
Kd ([6]; phosphate competition experiment, data not shown): 5 mM
Kd ([6]; pyrophosphate competition experiment): 3.89 mM
predicted negative charges [3]: three negative charges
rate of derivatization of IL-1ra with MAP compared with phosphate buffer (IL-1ra [1]): slower
rate of derivatization of IL-1ra with MAP in 20 mM compared with 10 mM buffer (IL-1ra [1]): slower
Kd (IL-1ra [7]): 3.85 mM
number of binding sites on IL-1ra (x-intercept of Scatchard plot) (IL-1ra [7]; pH 6.5, 70 mM NaCl): 0.94
Compound: O=C(O)CC(O)(CC(=O)O)C(=O)O [citrate]
